# What was measured:
# redroot pigweed = assay: Test A pre-/postemergence greenhouse test; assay type: in vivo, Amaranthus retroflexus; settings: for Plant response rating, Pigweed: 0 to 100 scale where 0 is no effect and 100 is complete control; for Pigweed plant response rating: 0 to 100 scale
# Method in brief: (§1)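 Pre: directed soil spray on seeded loam/sand. Post: foliar spray, plants 2–10 cm, 1–2 leaf stage, applied concurrently. Vehicle: non-phytotoxic solvent + surfactant. Greenhouse ~10 d; visual injury rating vs untreated controls.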
# duck salad = assay: Test C flooded paddy test; assay type: in vivo, Heteranthera limosa; settings: Flood
# Method in brief: (§2)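 Pots were flooded to 3 cm above the soil surface at treatment, compound applied directly to the paddy water, and that depth held throughout. Plants were kept in a greenhouse for 13 to 15 days, then visually rated against untreated controls.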
# giant foxtail = assay: Test A pre-/postemergence greenhouse test; assay type: in vivo, Setaria faberi; settings: for Plant response rating, Foxtail, Giant: 0 to 100 scale where 0 is no effect and 100 is complete control; for Foxtail, Giant plant response rating: 0 to 100 scale
# Method in brief: as §1
# barnyardgrass [1] = assay: Test A pre-/postemergence greenhouse test; assay type: in vivo, Echinochloa crus-galli; settings: for Plant response rating, Barnyardgrass: 0 to 100 scale where 0 is no effect and 100 is complete control; for Barnyardgrass plant response rating: 0 to 100 scale
# Method in brief: as §1
# wheat = assay: Test A pre-/postemergence greenhouse test; assay type: in vivo, Triticum aestivum; settings: for Plant response rating, Wheat: 0 to 100 scale where 0 is no effect and 100 is complete control; for Wheat plant response rating: 0 to 100 scale
# Method in brief: as §1
# velvetleaf = assay: Test A pre-/postemergence greenhouse test; assay type: in vivo, Abutilon theophrasti; settings: for Plant response rating, Velvetleaf: 0 to 100 scale where 0 is no effect and 100 is complete control; for Velvetleaf plant response rating: 0 to 100 scale
# Method in brief: as §1
# corn = assay: Test A pre-/postemergence greenhouse test; assay type: in vivo, Zea mays; settings: for Plant response rating, Corn: 0 to 100 scale where 0 is no effect and 100 is complete control; for Corn plant response rating: 0 to 100 scale
# Method in brief: as §1
# barnyardgrass [2] = assay: Test C flooded paddy test; assay type: in vivo, Echinochloa crus-galli; settings: Flood
# Method in brief: as §2
# rice = assay: Test C flooded paddy test; assay type: in vivo, Oryza sativa; settings: Flood
# Method in brief: as §2
# morningglory = assay: Test A pre-/postemergence greenhouse test; assay type: in vivo, Ipomoea spp.; settings: for Plant response rating, Morningglory: 0 to 100 scale where 0 is no effect and 100 is complete control; for Morningglory plant response rating: 0 to 100 scale
# Method in brief: as §1
# umbrella sedge = assay: Test C flooded paddy test; assay type: in vivo, Cyperus difformis; settings: Flood
# Method in brief: as §2
# crabgrass = assay: Test A pre-/postemergence greenhouse test; assay type: in vivo, Digitaria sanguinalis; settings: for Plant response rating, Crabgrass, Large: 0 to 100 scale where 0 is no effect and 100 is complete control; for Crabgrass, Large plant response rating: 0 to 100 scale
# Method in brief: as §1
# [3] = Postemergence, 500 g ai/ha, 0 is no effect, 100 is complete control
# [4] = Preemergence, 125 g ai/ha, 0 no effect, 100 complete control
# [5] = 62 g ai/ha, scale 0 to 100, 0 no effect, 100 complete control, 13 to 15 days
# [6] = 250 g ai/ha, scale 0 to 100, 0 no effect, 100 complete control, 13 to 15 days
# [7] = 31 g ai/ha, scale 0 to 100 (0 no effect, 100 complete control)
# [8] = 125 g ai/ha, scale 0 to 100, 0 no effect, 100 complete control, 13 to 15 days
structure (smiles),measurement,setting,value
Cn1nc(C(F)(F)F)c(C[S+]([O-])c2cc(Cl)cc[n+]2[O-])c1OC(F)F (centres unmarked) [Compound 57],"Plant response rating, Pigweed","redroot pigweed; Postemergence, 125 g ai/ha",70
same,Pigweed plant response rating,redroot pigweed; [3],100
same,Pigweed plant response rating,redroot pigweed; [4],70
same,"Plant response rating, Pigweed","redroot pigweed; Preemergence, 500 g ai/ha",100
same,"Plant response rating, Ducksalad",duck salad; [5],40
same,"Plant response rating, Ducksalad",duck salad; [6],95
same,"Plant response rating, Foxtail, Giant","giant foxtail; Postemergence, 125 g ai/ha",30
same,"Foxtail, Giant plant response rating",giant foxtail; [3],60
same,"Foxtail, Giant plant response rating",giant foxtail; [4],30
same,"Plant response rating, Foxtail, Giant","giant foxtail; Preemergence, 500 g ai/ha",100
same,"Plant response rating, Barnyardgrass","barnyardgrass [1]; Postemergence, 125 g ai/ha",30
same,Barnyardgrass plant response rating,barnyardgrass [1]; [3],50
same,Barnyardgrass plant response rating,barnyardgrass [1]; [4],60
same,"Plant response rating, Barnyardgrass","barnyardgrass [1]; Preemergence, 500 g ai/ha",100
same,"Plant response rating, Wheat","wheat; Postemergence, 125 g ai/ha",50
same,Wheat plant response rating,wheat; [3],70
same,Wheat plant response rating,wheat; [4],20
same,"Plant response rating, Wheat","wheat; Preemergence, 500 g ai/ha",40
same,"Plant response rating, Velvetleaf","velvetleaf; Postemergence, 125 g ai/ha",30
same,Velvetleaf plant response rating,velvetleaf; [3],70
same,Velvetleaf plant response rating,velvetleaf; [4],50
same,"Plant response rating, Velvetleaf","velvetleaf; Preemergence, 500 g ai/ha",70
same,"Plant response rating, Corn","corn; Postemergence, 125 g ai/ha",0
same,Corn plant response rating,corn; [3],60
same,Corn plant response rating,corn; [4],0
same,"Plant response rating, Corn","corn; Preemergence, 500 g ai/ha",0
same,"Plant response rating, Barnyardgrass",barnyardgrass [2]; [5],15
same,"Plant response rating, Barnyardgrass",barnyardgrass [2]; [6],20
same,"Plant response rating, Rice",rice; [5],0
same,"Plant response rating, Rice",rice; [6],65
same,"Plant response rating, Morningglory","morningglory; Postemergence, 125 g ai/ha",30
same,Morningglory plant response rating,morningglory; [3],70
same,Morningglory plant response rating,morningglory; [4],40
same,"Plant response rating, Morningglory","morningglory; Preemergence, 500 g ai/ha",90
same,"Plant response rating, Sedge, Umbrella",umbrella sedge; [6],100
same,"Plant response rating, Crabgrass, Large","crabgrass; Postemergence, 125 g ai/ha",60
same,"Crabgrass, Large plant response rating",crabgrass; [3],90
same,"Crabgrass, Large plant response rating",crabgrass; [4],60
same,"Plant response rating, Crabgrass, Large","crabgrass; Preemergence, 500 g ai/ha",80
CC(c1c(C(F)(F)F)nn(CC(F)(F)F)c1Cl)S(=O)(=O)c1ccc(Cl)c[n+]1[O-] (centres unmarked) [Compound 55],"Plant response rating, Pigweed","redroot pigweed; Postemergence, 125 g ai/ha",0
same,Pigweed plant response rating,redroot pigweed; [3],30
same,Pigweed plant response rating,redroot pigweed; [4],90
same,"Plant response rating, Pigweed","redroot pigweed; Preemergence, 500 g ai/ha",100
same,"Plant response rating, Ducksalad",duck salad; [7],0
same,"Plant response rating, Ducksalad",duck salad; [5],40
same,"Plant response rating, Ducksalad",duck salad; [8],60
same,"Plant response rating, Ducksalad",duck salad; [6],60
same,"Plant response rating, Foxtail, Giant","giant foxtail; Postemergence, 125 g ai/ha",70
same,"Foxtail, Giant plant response rating",giant foxtail; [3],80
same,"Foxtail, Giant plant response rating",giant foxtail; [4],60
same,"Plant response rating, Foxtail, Giant","giant foxtail; Preemergence, 500 g ai/ha",90
same,"Plant response rating, Barnyardgrass","barnyardgrass [1]; Postemergence, 125 g ai/ha",40
same,Barnyardgrass plant response rating,barnyardgrass [1]; [3],80
same,Barnyardgrass plant response rating,barnyardgrass [1]; [4],30
same,"Plant response rating, Barnyardgrass","barnyardgrass [1]; Preemergence, 500 g ai/ha",100
same,"Plant response rating, Wheat","wheat; Postemergence, 125 g ai/ha",0
same,Wheat plant response rating,wheat; [3],0
same,Wheat plant response rating,wheat; [4],0
same,"Plant response rating, Wheat","wheat; Preemergence, 500 g ai/ha",0
same,"Plant response rating, Velvetleaf","velvetleaf; Postemergence, 125 g ai/ha",0
same,Velvetleaf plant response rating,velvetleaf; [3],30
same,Velvetleaf plant response rating,velvetleaf; [4],0
same,"Plant response rating, Velvetleaf","velvetleaf; Preemergence, 500 g ai/ha",0
same,"Plant response rating, Corn","corn; Postemergence, 125 g ai/ha",0
same,Corn plant response rating,corn; [3],0
same,Corn plant response rating,corn; [4],0
same,"Plant response rating, Corn","corn; Preemergence, 500 g ai/ha",0
same,"Plant response rating, Barnyardgrass",barnyardgrass [2]; [7],0
same,"Plant response rating, Barnyardgrass",barnyardgrass [2]; [5],0
same,"Plant response rating, Barnyardgrass",barnyardgrass [2]; [8],0
same,"Plant response rating, Barnyardgrass",barnyardgrass [2]; [6],0
same,"Plant response rating, Rice",rice; [7],0
same,"Plant response rating, Rice",rice; [5],0
same,"Plant response rating, Rice",rice; [8],0
same,"Plant response rating, Rice",rice; [6],20
same,"Plant response rating, Morningglory","morningglory; Postemergence, 125 g ai/ha",0
same,Morningglory plant response rating,morningglory; [3],50
same,Morningglory plant response rating,morningglory; [4],0
same,"Plant response rating, Morningglory","morningglory; Preemergence, 500 g ai/ha",50
same,"Plant response rating, Sedge, Umbrella",umbrella sedge; [7],0
same,"Plant response rating, Sedge, Umbrella",umbrella sedge; [8],65
same,"Plant response rating, Sedge, Umbrella",umbrella sedge; [6],75
same,"Plant response rating, Crabgrass, Large","crabgrass; Postemergence, 125 g ai/ha",50
same,"Crabgrass, Large plant response rating",crabgrass; [3],80
same,"Crabgrass, Large plant response rating",crabgrass; [4],80
same,"Plant response rating, Crabgrass, Large","crabgrass; Preemergence, 500 g ai/ha",90

# From patent US20100298141A1, “SUBSTITUTED PYRIDINE N-OXIDE HERBICIDES” (E. I. DU PONT DE NEMOURS AND COMPANY, priority 2007, published 2010)
